Where a SMILES comes first, the peptide text is derived from it. Bridges are numbered along the chain shown (N, C = ends). [ ]: non-standard residue; d: D form. The star is where a group is joined. X1 = NC[C@@H](CC(=O)*)c1cccc(Cl)c1; Dab = NCC[C@H](N)C(=O)O; Dap = NC[C@H](N)C(=O)O
Tests used:
[1] = tested on: E. coli ATCC 25922 (SEN) and E. coli NCTC13846 (MDR); assay: Frequency-of-resistance (FoR) assay, relative MIC of mutants; format: cell-based, Escherichia coli
In short: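 First-step resistance is selected by exposing roughly 10^10 cells to each antibiotic on agar for 48 h at 37 °C. Ten colonies from the highest selective concentration then undergo MIC testing by OD600 in MHB, reported relative to the ancestral strain.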

[2] = tested on: A. baumannii ATCC 17978 (SEN) and A. baumannii ATCC BAA-1605 (MDR); assay: Adaptive laboratory evolution (ALE), relative MIC of evolved lines; format: cell-based, Acinetobacter baumannii
In short: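 Ten parallel populations per antibiotic–ancestor pair were evolved in MHB at 37 °C, starting near 50% growth-inhibiting drug. Every 72 h they were passaged into 0.5–2.5× increasing concentrations, keeping the highest-drug well with OD600 > 0.2.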

[3] = AB-MDR (Acinetobacter baumannii ATCC BAA 1605), evolved line 2
[4] = AB-SEN (Acinetobacter baumannii ATCC 17978), evolved line 1
[5] = AB-SEN (Acinetobacter baumannii ATCC 17978), evolved line 3
[6] = AB-SEN (Acinetobacter baumannii ATCC 17978), evolved line 5
[7] = AB-SEN (Acinetobacter baumannii ATCC 17978), evolved line 8
[8] = AB-SEN (Acinetobacter baumannii ATCC 17978), evolved line 9

CC(C)C[C@@H]1NC(=O)[C@@H](Cc2ccccc2)NC(=O)[C@H](CCN)NC(=O)[C@@H](NC(=O)[C@H](CN)NC(=O)[C@@H](NC(=O)C[C@H](CN)c2cccc(Cl)c2)[C@@H](C)O)CCNC(=O)[C@H]([C@@H](C)O)NC(=O)[C@H](CCN)NC(=O)[C@H](CCN)NC1=O [SPR206] (X1-T[Dap][Dab][Dab][dF]L[Dab][Dab]T; lactam 3-C (inferred); N-terminus assumed)
3.612 log10: Relative MIC (log10) [2, 7]
1024: Relative MIC ([2]; AB-MDR (ATCC BAA 1605), evolved line 10, evolved vs ancestor) | Relative MIC ([2]; AB-SEN (ATCC 17978), evolved line 10, evolved vs ancestor) | Relative MIC ([2]; AB-SEN (Acinetobacter baumannii ATCC 17978), evolved line 10) | Relative MIC ([2]; ALE, A. baumannii ATCC 17978 (AB-SEN), evolved line 10) | Relative MIC ([2]; ALE, A. baumannii ATCC BAA 1605 (AB-MDR), evolved line 10) | Relative MIC ([2]; Acinetobacter baumannii ATCC 17978 (AB-SEN), evolved line 10) | Relative MIC ([2]; Acinetobacter baumannii ATCC BAA 1605 (AB-MDR), evolved line 10)
512 µg/mL: MIC of evolved line ([2]; AB-MDR ATCC BAA 1605, evolved line 8) | MIC of evolved line ([2]; AB-SEN (A. baumannii ATCC 17978), evolved line 8 of the given antibiotic)
64 µg/mL: MIC of evolved line ([1]; E. coli NCTC 13846 (EC-MDR), evolved line 1) | MIC of evolved line ([1]; E. coli NCTC 13846 (EC-MDR), evolved line 2) | MIC of evolved line ([1]; E. coli NCTC 13846 (EC-MDR), evolved line 3) | MIC of evolved line ([2]; AB-MDR ATCC BAA 1605, evolved line 3) | MIC of evolved line ([2]; AB-SEN (A. baumannii ATCC 17978), evolved line 3 of the given antibiotic)
2.709 log10: Relative MIC (log10) [2, 5]
128: Relative MIC ([1]; E. coli ATCC 25922 (EC-SEN), evolved line 1, evolved vs ancestor) | Relative MIC ([1]; E. coli ATCC 25922 (EC-SEN), evolved line 2, evolved vs ancestor) | Relative MIC ([1]; E. coli ATCC 25922 (EC-SEN), evolved line 3, evolved vs ancestor) | Relative MIC ([1]; FoR assay, Escherichia coli ATCC 25922 (EC-SEN), evolved line 1) | Relative MIC ([1]; FoR assay, Escherichia coli ATCC 25922 (EC-SEN), evolved line 2) | Relative MIC ([1]; FoR assay, Escherichia coli ATCC 25922 (EC-SEN), evolved line 3)
2048: Relative MIC ([2]; AB-MDR (ATCC BAA 1605), evolved line 1, evolved vs ancestor) | Relative MIC ([2]; AB-MDR (ATCC BAA 1605), evolved line 4, evolved vs ancestor) | Relative MIC ([2]; AB-MDR (Acinetobacter baumannii ATCC BAA 1605), evolved line 1) | Relative MIC ([2]; AB-SEN (A. baumannii ATCC 17978), evolved line 1 vs ancestor) | Relative MIC ([2]; AB-SEN (A. baumannii ATCC 17978), evolved line 4 vs ancestor) | Relative MIC [2, 4] | Relative MIC ([2]; AB-SEN (Acinetobacter baumannii ATCC 17978), evolved line 4) | Relative MIC ([2]; ALE, A. baumannii ATCC 17978 (AB-SEN), evolved line 1) | Relative MIC ([2]; ALE, A. baumannii ATCC 17978 (AB-SEN), evolved line 4) | Relative MIC ([2]; ALE, A. baumannii ATCC BAA 1605 (AB-MDR), evolved line 1) | Relative MIC ([2]; ALE, A. baumannii ATCC BAA 1605 (AB-MDR), evolved line 4) | Relative MIC ([2]; Acinetobacter baumannii ATCC 17978 (AB-SEN), evolved line 1) | Relative MIC ([2]; Acinetobacter baumannii ATCC 17978 (AB-SEN), evolved line 4) | Relative MIC ([2]; Acinetobacter baumannii ATCC BAA 1605 (AB-MDR), evolved line 4) | Relative MIC ([2]; Acinetobacter baumannii ATCC BAA 1605 (AB-MDR), evolved line 1)
4096: Relative MIC ([2]; AB-MDR (ATCC BAA 1605), evolved line 8, evolved vs ancestor) | Relative MIC ([2]; AB-SEN (A. baumannii ATCC 17978), evolved line 8 vs ancestor) | Relative MIC [2, 7] | Relative MIC ([2]; ALE, A. baumannii ATCC 17978 (AB-SEN), evolved line 8) | Relative MIC ([2]; ALE, A. baumannii ATCC BAA 1605 (AB-MDR), evolved line 8) | Relative MIC ([2]; Acinetobacter baumannii ATCC 17978 (AB-SEN), evolved line 8) | Relative MIC ([2]; Acinetobacter baumannii ATCC BAA 1605 (AB-MDR), evolved line 8)
512: Relative MIC ([2]; AB-MDR (ATCC BAA 1605), evolved line 3, evolved vs ancestor) | Relative MIC ([2]; AB-SEN (A. baumannii ATCC 17978), evolved line 3 vs ancestor) | Relative MIC [2, 5] | Relative MIC ([2]; ALE, A. baumannii ATCC 17978 (AB-SEN), evolved line 3) | Relative MIC ([2]; ALE, A. baumannii ATCC BAA 1605 (AB-MDR), evolved line 3) | Relative MIC ([2]; Acinetobacter baumannii ATCC 17978 (AB-SEN), evolved line 3) | Relative MIC ([2]; Acinetobacter baumannii ATCC BAA 1605 (AB-MDR), evolved line 3)
32 µg/mL: MIC of evolved line ([1]; E. coli ATCC 25922 (EC-SEN), evolved line 1) | MIC of evolved line ([1]; E. coli ATCC 25922 (EC-SEN), evolved line 2) | MIC of evolved line ([1]; E. coli ATCC 25922 (EC-SEN), evolved line 3)
256 µg/mL: MIC of evolved line ([2]; AB-MDR ATCC BAA 1605, evolved line 1) | MIC of evolved line ([2]; AB-MDR ATCC BAA 1605, evolved line 4) | MIC of evolved line ([2]; AB-SEN (A. baumannii ATCC 17978), evolved line 1 of the given antibiotic) | MIC of evolved line ([2]; AB-SEN (A. baumannii ATCC 17978), evolved line 4 of the given antibiotic)
3.913 log10: Relative MIC (log10) [2, 3] | Relative MIC (log10) ([2]; AB-MDR (Acinetobacter baumannii ATCC BAA 1605), evolved line 5) | Relative MIC (log10) ([2]; AB-MDR (Acinetobacter baumannii ATCC BAA 1605), evolved line 6) | Relative MIC (log10) ([2]; AB-MDR (Acinetobacter baumannii ATCC BAA 1605), evolved line 7) | Relative MIC (log10) ([2]; AB-MDR (Acinetobacter baumannii ATCC BAA 1605), evolved line 9) | Relative MIC (log10) [2, 6] | Relative MIC (log10) [2, 8]
3.311 log10: Relative MIC (log10) [2, 4]
1020 µg/mL: MIC of evolved line ([2]; AB-MDR ATCC BAA 1605, evolved line 2) | MIC of evolved line ([2]; AB-MDR ATCC BAA 1605, evolved line 5) | MIC of evolved line ([2]; AB-MDR ATCC BAA 1605, evolved line 6) | MIC of evolved line ([2]; AB-MDR ATCC BAA 1605, evolved line 7) | MIC of evolved line ([2]; AB-MDR ATCC BAA 1605, evolved line 9) | MIC of evolved line ([2]; AB-SEN (A. baumannii ATCC 17978), evolved line 2 of the given antibiotic) | MIC of evolved line ([2]; AB-SEN (A. baumannii ATCC 17978), evolved line 5 of the given antibiotic) | MIC of evolved line ([2]; AB-SEN (A. baumannii ATCC 17978), evolved line 6 of the given antibiotic) | MIC of evolved line ([2]; AB-SEN (A. baumannii ATCC 17978), evolved line 7 of the given antibiotic) | MIC of evolved line ([2]; AB-SEN (A. baumannii ATCC 17978), evolved line 9 of the given antibiotic)
16: Relative MIC ([1]; E. coli NCTC 13846 (EC-MDR), evolved line 1, evolved vs ancestor) | Relative MIC ([1]; E. coli NCTC 13846 (EC-MDR), evolved line 2, evolved vs ancestor) | Relative MIC ([1]; E. coli NCTC 13846 (EC-MDR), evolved line 3, evolved vs ancestor) | Relative MIC ([1]; FoR assay, Escherichia coli NCTC 13846 (EC-MDR), evolved line 1) | Relative MIC ([1]; FoR assay, Escherichia coli NCTC 13846 (EC-MDR), evolved line 2) | Relative MIC ([1]; FoR assay, Escherichia coli NCTC 13846 (EC-MDR), evolved line 3)
128 µg/mL: MIC of evolved line ([2]; AB-MDR ATCC BAA 1605, evolved line 10) | MIC of evolved line ([2]; AB-SEN (ATCC 17978), evolved line 10)
8192: Relative MIC ([2]; AB-MDR (ATCC BAA 1605), evolved line 2, evolved vs ancestor) | Relative MIC ([2]; AB-MDR (ATCC BAA 1605), evolved line 5, evolved vs ancestor) | Relative MIC ([2]; AB-MDR (ATCC BAA 1605), evolved line 6, evolved vs ancestor) | Relative MIC ([2]; AB-MDR (ATCC BAA 1605), evolved line 7, evolved vs ancestor) | Relative MIC ([2]; AB-MDR (ATCC BAA 1605), evolved line 9, evolved vs ancestor) | Relative MIC [2, 3] | Relative MIC ([2]; AB-SEN (A. baumannii ATCC 17978), evolved line 2 vs ancestor) | Relative MIC ([2]; AB-SEN (A. baumannii ATCC 17978), evolved line 5 vs ancestor) | Relative MIC ([2]; AB-SEN (A. baumannii ATCC 17978), evolved line 6 vs ancestor) | Relative MIC ([2]; AB-SEN (A. baumannii ATCC 17978), evolved line 7 vs ancestor) | Relative MIC ([2]; AB-SEN (A. baumannii ATCC 17978), evolved line 9 vs ancestor) | Relative MIC ([2]; AB-SEN (Acinetobacter baumannii ATCC 17978), evolved line 2) | Relative MIC [2, 6] | Relative MIC ([2]; AB-SEN (Acinetobacter baumannii ATCC 17978), evolved line 6) | Relative MIC [2, 8] | Relative MIC ([2]; AB-SEN, Acinetobacter baumannii ATCC 17978, evolved line 7) | Relative MIC ([2]; ALE, A. baumannii ATCC 17978 (AB-SEN), evolved line 2) | Relative MIC ([2]; ALE, A. baumannii ATCC 17978 (AB-SEN), evolved line 5) | Relative MIC ([2]; ALE, A. baumannii ATCC 17978 (AB-SEN), evolved line 6) | Relative MIC ([2]; ALE, A. baumannii ATCC 17978 (AB-SEN), evolved line 7) | Relative MIC ([2]; ALE, A. baumannii ATCC 17978 (AB-SEN), evolved line 9) | Relative MIC ([2]; ALE, A. baumannii ATCC BAA 1605 (AB-MDR), evolved line 2) | Relative MIC ([2]; ALE, A. baumannii ATCC BAA 1605 (AB-MDR), evolved line 5) | Relative MIC ([2]; ALE, A. baumannii ATCC BAA 1605 (AB-MDR), evolved line 6) | Relative MIC ([2]; ALE, A. baumannii ATCC BAA 1605 (AB-MDR), evolved line 7) | Relative MIC ([2]; ALE, A. baumannii ATCC BAA 1605 (AB-MDR), evolved line 9) | Relative MIC ([2]; Acinetobacter baumannii ATCC 17978 (AB-SEN), evolved line 2) | Relative MIC ([2]; Acinetobacter baumannii ATCC 17978 (AB-SEN), evolved line 5) | Relative MIC ([2]; Acinetobacter baumannii ATCC 17978 (AB-SEN), evolved line 6) | Relative MIC ([2]; Acinetobacter baumannii ATCC 17978 (AB-SEN), evolved line 7) | Relative MIC ([2]; Acinetobacter baumannii ATCC 17978 (AB-SEN), evolved line 9) | Relative MIC ([2]; Acinetobacter baumannii ATCC BAA 1605 (AB-MDR), evolved line 2) | Relative MIC ([2]; Acinetobacter baumannii ATCC BAA 1605 (AB-MDR), evolved line 5) | Relative MIC ([2]; Acinetobacter baumannii ATCC BAA 1605 (AB-MDR), evolved line 6) | Relative MIC ([2]; Acinetobacter baumannii ATCC BAA 1605 (AB-MDR), evolved line 7) | Relative MIC ([2]; Acinetobacter baumannii ATCC BAA 1605 (AB-MDR), evolved line 9)

— article PMC11845477, “Exploring the principles behind antibiotics with limited resistance” (Nature Communications, 2025)
